Experiments:
[1] = test system: plasmablast signature genes IgJ, MZB1, TXNDC5; test: Plasmablast signature gene expression in differentiated memory B cells, Fluidigm quantitative RT-PCR; type: cell-based, human; conditions: 370 nM vs DMSO, 5 days, n=4 donors
Description: FIGS. 8A, 8B, 8C and 8D. BTK inhibition reduces the plasmablast gene signature. Memory B cells from 4 healthy donors were differentiated into plasmablasts using conditions described above, in the presence of DMSO vehicle or 370 nM GDC-0852. Expression of plasmablast signature genes was measured by Fluidigm, and normalized to a housekeeping gene (HPRT1). Expression values are plotted as the relative transcript abundance to the housekeeping gene. The plasmablast signature was calculated as the geometric mean of the relative abundances of the three individual genes.
(§1) Plasmablast Differentiation: Memory B cells were isolated from Healthy donor PBMC (Miltenyi Memory B cell isolation kit). For the Plasmablast differentiation, 1.5×10^5/ml memory B cells were then cultured in the presence of a cocktail of cytokines, IL-2(20 U/ml), IL-10 (50 ng/ml), IL-15(10 ng/ml), IL-6 (50 ng/ml), IFNa (10 ng/ml) and stimulated with either ODN2006 (TLR-9 ligand) 5 ug/ml, or CD40L (3 ug/ml) for 5 days. The plasmablast differentiation was carried out in the presence of vehicle alone (DMSO) and GDC-0852 at various concentrations, using a 3 fold dose titration of inhibitor starting at 10 uM. Flow cytometry was performed to enumerate ([…]) plasmablast percentages and assess the inhibition by GDC-0852.
RNA Preparation: RNA was extracted from the cells in culture at 5 days from the DMSO and GDC-0852 (370 nM) treated cells (n=4). Cells were disrupting in RLT buffer using the Qiashredder (Qiagen, Valencia, Calif.) and then RNA was extracted using the RNeasy mini kit (Qiagen) including the on-column DNase digestion. The concentration of total RNA and integrity of RNA samples was determined using the NanoDrop 8000 (Thermo Scientific). The isolated RNA was used for the Fluidigm quantitative RT-PCR analyses.
QT PCR: cDNA synthesis was performed on 100 ng total-RNA using an iScript cDNA synthesis kit (Biorad, Hercules, Calif.). Gene-specific pre-amplification was performed (Applied Biosystems) for 3 genes (IgJ, MZB1, TXNDC5 including housekeeping genes TMEM55B. RT-PCR was performed using the BioMark 48.48 Dynamic Arrays (Fluidigm Corporation) using the manufacturer's protocol. Data were collected using the BioMark Data Collection Software and CT values were obtained using the BioMark RT-PCR Analysis Software (V.2.1.1, Fluidigm). The relative abundance (dCt) to HPRT1 was calculated: 2 log−(average Ct gene−average Ct HPRT1). For statistical analyses, values below the lower limit of detection were set to be 1 Ct lower than the lowest recorded value.
(§2) Statistical analyses were performed using either <> or custom scripts written in the R programming language. […] IC50 values for BTK inhibition was calculated using the GraphPad Prism software. […]

human memory B cells [2] = test: CpG-mediated plasmablast differentiation of memory B cells, flow cytometry; type: cell-based; conditions: B-cell, memory B cells from healthy donors, ODN2006 5 ug/ml plus cytokines, n=3, read-out: IC50 potency, inhibition of CpG-mediated plasmablast differentiation
Description: as §1, §2
(§3) Results: The differentiation of B cells into plasmablast can occur through multiple activation stimuli and involves distinct molecular changes. […] We evaluated the effect of the BTK inhibitor GDC-0852 in the plasmablast differentiation process, either by a T cell-mediated response using CD40L stimulation or a T cell-independent response using the Toll-like receptor ligand, CpG.

human memory B cells [3] = test: CD40L induced plasmablast differentiation of memory B cells, flow cytometry; type: cell-based
Description: It was confirmed that plasmablast differentiation was regulated by Bruton's Tyrosine Kinase (BTK) activity by performing an in vitro plasmablasts differentiation assay where human memory B cells were put into differentiating conditions, and were subsequently measured after 5 days using flow cytometry quantification for CD20^loCD38^++ plasmablasts. […] GDC-0852 is (S)-2-(5-Fluoro-2-(hydroxymethyl)-3-(1-methyl-5-(5-(2-methyl-4-(oxetan-3-y-1)piperazin-1-yl)pyridin-2-ylamino)-6-oxo-1,6-dihydropyridin-3-yl)-phenyl)-3,4,6,7,8,9-hexahydropyrido[3,4-b]indolizin-1(2H)-one, the structure of which is shown below:
Plasmablast Differentiation: Memory B cells were isolated from Healthy donor PBMC (Miltenyi Memory B cell isolation kit). […]
as §2, §3

plasmablast signature [4] = test: Plasmablast signature in blood of extra-renal lupus patients, EXPLORER clinical trial; type: in vivo, human; conditions: for expression of the plasmablast signature compared to patients treated with azathioprine: screening samples
Description: (§4) Blood Sample Analysis: 3-gene plasmablast signature expression assay. Blood was collected in PAXgene RNA tubes (PreAnalytiX); total RNA was extracted using commercially available kits according to manufacturer instructions (Qiagen).
(§5) Alternatively, expression of candidate biomarker genes in blood samples was quantified by Fluidigm qPCR assays. 3-gene score was calculated from the mean of IgJ, TXNDC5 and MZB1, and normalized using reference gene TMEM55B. Blood samples were assessed using this assay developed on the Cobas 4800 platform (Roche Molecular Systems).
(§6) Plasmablast signature values were collected from two cohorts of moderate to severe lupus patients from phase II clinical trials assessing the safety and efficacy of rituximab in SLE. The cohorts were patients with either lupus nephritis (LUNAR) or extra-renal lupus (EXPLORER). Mixed effects modeling of plasmablast signature values over the course of treatment, incorporating covariates for age, race, concomitant medications, interferon activity, SLEDAI, visit, treatment arm and their interaction, with patient modeled as a random effect, identified a profound decrease in plasmablast signature specifically within the rituximab treated patients (FIG. 4A, 4B). This effect was most apparent in the time points two weeks after receiving rituximab infusion, with diminishing effect over time.
In the EXPLORER trial, patients were monitored for presence of antibodies directed against mouse-human chimeric antibodies (HACA). […] Using the same linear mixed effects model, as above, a 2.8-fold higher expression of plasmablast marker genes was found in patients that went on to develop HACA (p=0.0007).
Previous studies identified an association between different immunosuppressive treatments and reduced expression of plasmablast-associated genes.

plasmablast signature [5] = test: Plasmablast signature in blood of lupus nephritis patients, LUNAR clinical trial; type: in vivo, human
Description: as §4, §5
as §6, with “time. […]” for “time.”

C[C@H]1CN(C2COC2)CCN1c1ccc(Nc2cc(-c3cc(F)cc(N4CCc5c(cc6n5CCCC6)C4=O)c3CO)cn(C)c2=O)nc1 [GDC-0852, (S)-2-(5-Fluoro-2-(hydroxymethyl)-3-(1-methyl-5-(5-(2-methyl-4-(oxetan-3-y-1)piperazin-1-yl)pyridin-2-ylamino)-6-oxo-1,6-dihydropyridin-3-yl)-phenyl)-3,4,6,7,8,9-hexahydropyrido[3,4-b]indolizin-1(2H)-one]
expression of plasmablast signature gene MZB1 ([1]; p=0.0023): significant decrease | composite plasmablast 3 gene signature ([1]; p=0.0026): significant decrease | expression of plasmablast signature gene TXNDC5 ([1]; p=0.0032): significant decrease | expression of plasmablast signature gene IgJ ([1]; p=0.011): significant decrease | IC50 (human memory B cells [2]): 48 nM | IC50 (human memory B cells [3]; Homo sapiens, B-cell, 120 h, memory B cells from healthy donors, CD40L 3 ug/ml plus cytokines, day 5, FACS, read-out: IC50 potency, inhibition of CD40L induced plasmablast differentiation): 20 nM | inhibition of CD40L induced plasmablast differentiation (human memory B cells [3]; human memory B cells, measured after 5 days, CD20loCD38++ plasmablasts by flow cytometry): inhibited CD40L induced plasmablast differentiation in a dose-dependent manner

CN(Cc1cnc2nc(N)nc(N)c2n1)c1ccc(C(=O)N[C@@H](CCC(=O)O)C(=O)O)cc1 [methotrexate]
expression of the plasmablast signature compared to patients treated with azathioprine (plasmablast signature [4]): much lower expression

COc1c(C)c2c(c(O)c1C/C=C(\C)CCC(=O)OCCN1CCOCC1)C(=O)OC2 [mycophenolate, mycophenolate mofetil]
expression of plasmablast signature genes in patients on treatment at baseline (plasmablast signature [5]; baseline, relatively few patients in the MMF pool): trend toward lower expression | expression of the plasmablast signature compared to patients treated with azathioprine (plasmablast signature [4]): much lower expression

rituximab
reduction of plasmablast signature expression (plasmablast signature [5]; week 28 time point, p=0.0011): 3.31 fold | change in plasmablast signature after treatment in patients that went on to develop anti-drug antibodies (HACA) (plasmablast signature [4]; HACA-positive patients): limited to no decrease | maximum decrease in plasmablast signature (plasmablast signature [4]; week 28, two weeks following the fourth infusion, p=2×10^−11): 3.48 fold
